Experiments:
Type in all cases: cell-based
Trichophyton = assay: Antimicrobial test of PVC test piece, fungi (growth on agar-covered piece); design: key: A: No growth on the test piece.; B: The grown fungi covers less than 30% of the test piece's surface area.; C: The grown fungi covers 30% or more and less than 70% of the test piece's surface area.; D: The grown fungi covers 70% or more of the test piece's surface area; conditions: soft PVC sheet; ZnPT 0.01 + test compound 0.3 parts per 100 PVC; 35° C., 1 week
Method: (§1) A mixture having the formulation described below was roll kneaded at 170° C. to prepare a sheet, which was pressed at 180° C. for 5 minutes to obtain a 0.5 mm thick soft PVC sheet. A 10 mm×10 mm test piece was cut out of the soft PVC sheet and evaluated for antimicrobial properties against bacteria (Nos. 1 to 5 in Table 1) and fungi (Nos. 6 to 8 in Table 1) in accordance with the respective methods described below.
(§2) The test piece was placed at the center of a culture dish, and a common agar medium was poured to thinly cover the test piece. The culture solution was applied to the agar medium and cultivated at 35° C. for 1 week. The growth of the fungus was observed and rated based on the following criteria.
(§3) A mixture having the formulation shown below was roll kneaded at 170° C. to prepare a sheet, which was pressed at 180° C. for 5 minutes to obtain a 0.5 mm thick semi-rigid PVC sheet. A 10 mm×10 mm test piece was cut out of the semi-rigid PVC sheet. Zinc pyrithione and a test compound were previously compounded to prepare an antimicrobial composition in a predetermined ratio to give the formulation. The test piece was tested in the same manner as in Example 1.

Kurokawa mold = assay: as above; design: key: A: No growth on the test piece.; B: The grown fungi covers less than 30% of the test piece's surface area.; C: The grown fungi covers 30% or more and less than 70% of the test piece's surface area.; D: The grown fungi covers 70% or more of the test piece's surface area; conditions: soft PVC sheet; ZnPT 0.01 + test compound 0.3 parts per 100 PVC; 35° C., 1 week
Method: as §1, §2, §3

Brewer's yeast = assay: as above; design: key: A: No growth on the test piece.; B: The grown fungi covers less than 30% of the test piece's surface area.; C: The grown fungi covers 30% or more and less than 70% of the test piece's surface area.; D: The grown fungi covers 70% or more of the test piece's surface area; conditions: soft PVC sheet; ZnPT 0.01 + test compound 0.3 parts per 100 PVC; 35° C., 1 week
Method: as §1, §2, §3

MRSA = assay: Antimicrobial test of PVC test piece, bacteria (surviving cells); conditions: soft PVC sheet; ZnPT 0.01 + test compound 0.3 parts per 100 PVC; 35° C., 2 days
Method: as §1
(§4) The culture solution was applied to the test piece, and the test piece was tightly covered with polyethylene cling film. After cultivation at 35° C. for 2 days, the number of surviving cells was counted and rated based on the following criteria.
as §3

Escherichia coli = assay: as above; conditions: soft PVC sheet; ZnPT 0.01 + test compound 0.3 parts per 100 PVC; 35° C., 2 days
Method: as §1, §4, §3

Lactobacillus = assay: as above; conditions: soft PVC sheet; ZnPT 0.01 + test compound 0.3 parts per 100 PVC; 35° C., 2 days
Method: as §1, §4, §3

Staphylococcus aureaus = assay: as above; conditions: soft PVC sheet; ZnPT 0.01 + test compound 0.3 parts per 100 PVC; 35° C., 2 days
Method: as §1, §4, §3

Bacillus subtilis = assay: as above; conditions: soft PVC sheet; ZnPT 0.01 + test compound 0.3 parts per 100 PVC; 35° C., 2 days
Method: as §1, §4, §3

SMILES	Fungal growth rating, microorganism 6: Trichophyton (Trichophyton)	Fungal growth rating, microorganism 8: Kurokawa mold (Kurokawa mold)	Fungal growth rating, microorganism 7: Brewer's yeast (Brewer's yeast)	Survival rate rating, microorganism 2: MRSA (MRSA)	Survival rate rating, microorganism 5: Escherichia coli (Escherichia coli)	Survival rate rating, microorganism 4: Lactobacillus (Lactobacillus)	Survival rate rating, microorganism 1: Staphylococcus aureaus (Staphylococcus aureaus)	Survival rate rating, microorganism 3: Bacillus subtilis (Bacillus subtilis)
CC1c2cc(C(C)(C)C)cc(C(C)(C)C)c2OP(=O)([O-])Oc2c1cc(C(C)(C)C)cc2C(C)(C)C.[Na+] (stereo not drawn) [No. 7]	A	A	A	A (The survival rate is less than 0.1%.)	A (The survival rate is less than 0.1%.)	A (The survival rate is less than 0.1%.)	A (The survival rate is less than 0.1%.)	A (The survival rate is less than 0.1%.)
Cc1cc2c(c(C(C)(C)C)c1)OP(=O)([O-])Oc1c(cc(C)cc1C(C)(C)C)C2.[Na+] [No. 6]	A	A	A	A (The survival rate is less than 0.1%.)	A (The survival rate is less than 0.1%.)	A (The survival rate is less than 0.1%.)	A (The survival rate is less than 0.1%.)	A (The survival rate is less than 0.1%.)
Cc1c(C(C)(C)C)cc(C(C)(C)C)c2c1C(C)c1c(C)c(C(C)(C)C)cc(C(C)(C)C)c1OP(=O)([O-])O2.[Na+] (stereo not drawn) [No. 8]	A	A	A	A (The survival rate is less than 0.1%.)	A (The survival rate is less than 0.1%.)	A (The survival rate is less than 0.1%.)	A (The survival rate is less than 0.1%.)	A (The survival rate is less than 0.1%.)

— patent publication US20040166163A1, “Antibacterial composition for medical tool” (priority 2001, published 2004)
